One experiment has as its target T1, Coagulation factor XII (Homo sapiens, UniProt P00748).
T1 sequence (P00748 whole entry): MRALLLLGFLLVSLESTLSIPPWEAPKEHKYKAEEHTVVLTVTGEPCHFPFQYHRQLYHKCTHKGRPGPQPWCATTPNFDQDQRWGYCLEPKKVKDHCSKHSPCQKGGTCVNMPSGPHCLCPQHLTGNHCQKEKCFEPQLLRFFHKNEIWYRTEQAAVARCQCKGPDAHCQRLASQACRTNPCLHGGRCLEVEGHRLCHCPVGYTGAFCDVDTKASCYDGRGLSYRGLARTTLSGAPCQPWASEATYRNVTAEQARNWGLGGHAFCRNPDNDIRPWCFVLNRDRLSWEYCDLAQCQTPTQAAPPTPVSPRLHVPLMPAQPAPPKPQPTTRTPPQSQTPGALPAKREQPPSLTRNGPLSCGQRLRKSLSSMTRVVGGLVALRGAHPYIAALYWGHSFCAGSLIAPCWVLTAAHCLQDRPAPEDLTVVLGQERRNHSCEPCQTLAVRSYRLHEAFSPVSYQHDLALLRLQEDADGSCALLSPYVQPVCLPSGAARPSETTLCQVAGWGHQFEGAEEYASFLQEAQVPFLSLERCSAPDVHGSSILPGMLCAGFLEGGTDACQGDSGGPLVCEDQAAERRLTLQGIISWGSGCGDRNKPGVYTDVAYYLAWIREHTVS
As to the kind of experiment: Protease Inhibition Assay. The following applies: pH 7.4. The method, then: (§1) The inhibition of plasma kallikrein and coagulation factor FXII was assessed by incubating the proteases with bicyclic peptide (twofold dilutions) and measuring the residual protease activity with fluorogenic substrates. The inhibition assays were performed in buffer ([…]) containing Tris HCl (pH 7.4, 10 mm), NaCl (150 mm), MgCl2 (10 mm), CaCl2 (1 mm), bovine serum albumin (BSA, 0.1 %, w/v), Triton-X100 (0.01%, v/v), and DMSO (5 %, v/v). Final concentrations of human plasma kallikrein (Innovative Research) and human FXII (Innovative Research)were 0.25 nm and 10 nm, respectively. The fluorogenic substrates Z-Phe-Arg-AMC (plasma kallikrein) and Z-Gly-Gly-Arg-AMC (FXII) were used at a final concentration of […]. Fluorescence intensity was measured with a Tecan Infinite M 200 Pro plate reader (λex= 368 nm, λem=468 nm).

A further experiment addresses Plasma kallikrein (Human, UniProt P03952). In words: Protease Inhibition Assay. The settings on record: pH 7.4. The protocol:
as §1

Chain of Plasma kallikrein (P03952 20-390 S143N limits assumed): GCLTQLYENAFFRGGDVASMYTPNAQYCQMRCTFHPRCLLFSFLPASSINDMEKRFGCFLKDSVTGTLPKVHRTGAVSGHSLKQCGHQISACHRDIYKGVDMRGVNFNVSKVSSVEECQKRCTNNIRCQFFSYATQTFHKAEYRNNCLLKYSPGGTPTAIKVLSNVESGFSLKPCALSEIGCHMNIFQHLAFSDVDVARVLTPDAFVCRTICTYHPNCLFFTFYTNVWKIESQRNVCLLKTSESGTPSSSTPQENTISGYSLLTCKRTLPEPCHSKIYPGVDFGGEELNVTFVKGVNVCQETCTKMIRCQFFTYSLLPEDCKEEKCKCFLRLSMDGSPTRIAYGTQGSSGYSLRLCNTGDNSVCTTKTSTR
Chain of Plasma kallikrein (P03952 391-638 limits assumed): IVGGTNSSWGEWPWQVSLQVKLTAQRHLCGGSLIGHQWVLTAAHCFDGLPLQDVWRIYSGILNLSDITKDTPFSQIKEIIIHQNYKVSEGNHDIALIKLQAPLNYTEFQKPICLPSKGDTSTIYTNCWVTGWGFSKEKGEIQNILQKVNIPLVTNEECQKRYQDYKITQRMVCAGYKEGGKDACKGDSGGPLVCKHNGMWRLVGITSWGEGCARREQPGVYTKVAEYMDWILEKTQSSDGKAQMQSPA

A word on the Ki: it is the dissociation constant of the complex between target and ligand, obtained from inhibition or displacement. The low end stands for tighter binding, the high end for weaker binding. Take `CSCCC(=O)N1CN(C(=O)CCSC)CN(C(=O)CCSC)C1` [TATA-FXII618 (14)]: the inhibitory constant (Ki) on Coagulation factor XII stood at 0.025 µM.
On to `CSCC(=O)N1CN(C(=O)CSC)CN(C(=O)CSC)C1` [TATB-FXII618 (15)], for which the values for the Ki on Plasma kallikrein and at Coagulation factor XII were 0.54 µM and 0.34 µM, respectively.
`CSCc1cc(CSC)cc(CSC)c1` [TBMB-PK15 (10)] gave a Ki on Plasma kallikrein of 0.0013 µM.
For `CSCc1nc(CSC)nc(CSC)n1` [TBMT-FX618 (16)], the Ki at Plasma kallikrein is 0.02 µM; on Coagulation factor XII, 1.22 µM.

(Values after BindingDB's records for doi:10.1002/cbic.201600612 (University of Glasgow, 2017).)
